The assay deals with angiotensin II AT1 receptor. Description: Assay A: Angiotensin II binding activity (125I-AII displacement, rat uterine membrane preparation). As for the experimental part:
Assay A: Antiotensin II Binding Activity
Compounds of the invention were tested for ability to bind to the smooth muscle angiotensin II receptor using a rat uterine membrane preparation. […] Rat uterine membranes were prepared from fresh tissue. All procedures were carried out at 4° C. Uteri were stripped of fat and homogenized in phosphate-buffered saline at pH 7.4 containing 5 mM EDTA. The homogenate was centrifuged at 1500×g for 20 min., and the supernatant was recentrifuged at 100,000×g for 60 min. The pellet was resuspended in buffer consisting of 2 mM EDTA and 50 mM Tris-HCl (pH 7.5) to a final protein concentration of 4 mg/ml. […] The reaction was initiated by the addition of membrane protein and the mixture was incubated at 25° C. for 60 min. The incubation was terminated with ice-cold 50 mM Tris-HCl (pH 7.5) and the mixture was filtered to separate membrane-bound labelled peptide from the free ligand. The incubation tube and filter were washed with ice-cold buffer. Filters were assayed for radioactivity in a Micromedic gamma counter.
Nonspecific binding was defined as binding in the presence of 10 μM of unlabelled AII. Specific binding was calculated as total binding minus nonspecific binding. […] Binding data were analyzed by a nonlinear least-squares curve fitting program.

SMILES strings stand for the structures.

In general, IC50 refers to the concentration at which inhibition is half-maximal. In turn, `CCCCc1cn(-c2ccccc2OC)c(=O)n1Cc1ccc(-c2ccccc2-c2nnn[nH]2)nc1` [Compound 218] yielded an IC50 of 9 nM.

Turning to `CCCCc1nc(Cc2ccccc2)nn1Cc1ccc(-c2ccccc2-c2nnn[nH]2)cc1` [Compound 44], the IC50 came out at 16 nM.

As for `CCCCCCCCc1nc(CCCC)n(Cc2ccc(-c3ccccc3-c3nnn[nH]3)cc2)n1` [Compound 29], the IC50 was 160 nM.

For the compound `CCCCc1cn(C2CCCC2)c(=O)n1Cc1ccc(-c2ccccc2-c2nnn[nH]2)nc1` [Compound 207], the IC50 was determined as 99 nM.

`CCCCn1nc(CCc2ccccc2)nc1Cc1ccc(-c2ccccc2-c2nnn[nH]2)cc1` [Compound 131]: the IC50 amounted to 9.5 nM. Against the preceding compound, the IC50 is about 10-fold lower.

Consider `CCCCn1nc(C(C)(OC)OC)nc1Cc1ccc(-c2ccccc2-c2nnn[nH]2)nc1` [Compound 182], for which the IC50 is 59 nM.

The compound `CCCCc1nc(CN)nn1Cc1ccc(-c2ccccc2-c2nnn[nH]2)cc1` [Compound 27] returned an IC50 of 180 nM.

As for `CCCCc1cn(CCCC)c(=O)n1Cc1ccc(-c2cnccc2-c2nnn[nH]2)cc1` [Compound 225], the IC50 was determined as 160 nM.

`CCCCc1nc(C(OC)OC)n(Cc2ccc(-c3ccccc3-c3nnn[nH]3)cc2)n1` [Compound 23] yielded an IC50 of 430 nM.

The compound `CCCCc1cn(-c2c(C(C)C)cccc2C(C)C)c(=O)n1Cc1ccc(-c2ccccc2-c2nnn[nH]2)nc1` [Compound 235] came in with an IC50 of 34 nM.

Compound `CCCCc1nc(-c2ccccc2)nn1Cc1ccc(-c2ccccc2-c2nnn[nH]2)nc1` [Compound 259] gave a concentration for half-maximal inhibition (IC50) of 54 nM. This IC50 lies about 1.6-fold higher than the previous one.

`CCCCn1nc(C(=O)NC(C)(C)C)nc1Cc1ccc(-c2ccccc2-c2nnn[nH]2)nc1` [Compound 173] gave an IC50 of 90 nM. Compared with the last compound, the IC50 is about 1.7-fold higher.

As for `CCCCc1nc(-c2ccccc2C(C)C)n(Cc2ccc(-c3ccccc3-c3nnn[nH]3)nc2)n1` [Compound 264], the concentration for half-maximal inhibition (IC50) amounted to 11 nM.

Turning to `CCn1nc(C(C)(F)F)nc1Cc1ccc(-c2ccccc2-c2nnn[nH]2)nc1` [Compound 164], the IC50 amounted to 1700 nM.

The compound `CCCCc1nc(-c2c(F)cccc2F)n(Cc2ccc(-c3ccccc3-c3nnn[nH]3)nc2)n1` [Compound 270] came in with an IC50 of 21 nM.

For `CCCCCCCCc1nc(CCCC)nn1Cc1ccc(-c2ccccc2-c2nnn[nH]2)cc1` [Compound 28], the IC50 came out at 570 nM.

`CCCCc1nc(CF)n(Cc2ccc(-c3ccccc3-c3nnn[nH]3)cc2)n1` [Compound 60] came in with an IC50 of 2200 nM.

Take `CCCCn1cc(C2CCCC2)n(Cc2ccc(-c3ccccc3-c3nnn[nH]3)nc2)c1=O` [Compound 192]: the IC50 was determined as 140 nM.

The compound `CCCCc1nc(CCCC)n(Cc2ccc(-c3cccnc3-c3nnn[nH]3)cc2)n1` [Compound 242] came in with an IC50 of 110 nM.

Turning to `CCCCc1nc(-c2c(F)cccc2F)nn1Cc1ccc(-c2ccccc2-c2nnn[nH]2)nc1` [Compound 269], the IC50 was 9.7 nM. Against the preceding compound, the IC50 is about 11-fold lower.

For `CCCCc1nc(-c2ccccc2C(C)C)nn1Cc1ccc(-c2ccccc2-c2nnn[nH]2)nc1` [Compound 263], the IC50 is 57 nM. This IC50 is about 5.9-fold higher than that of the compound before.

The compound `CCCCc1nc(CC23CC4CC(CC(C4)C2)C3)n(Cc2ccc(-c3ccccc3-c3nnn[nH]3)cc2)n1` [Compound 61] had an IC50 of 110 nM. This IC50 lies about 1.9-fold higher than the previous one.

Consider `CCCCc1nc(CCc2ccccc2)n(Cc2ccc(-c3ccccc3-c3nnn[nH]3)nc2)n1` [Compound 254], for which the half-inhibitory concentration (IC50) came out at 72 nM. This IC50 is about 1.5-fold lower than that of the compound before.

`CCCCc1nn(/C(Cc2ccccc2)=C(/OCc2ccccc2)c2ccccc2)c(=O)n1Cc1ccc(-c2ccccc2-c2nn[nH]n2)cc1` [Compound 93] displayed an IC50 of 480 nM.

`CCCCc1cn(-c2c(C)cc(C(C)(C)C)cc2C)c(=O)n1Cc1ccc(-c2ccccc2-c2nnn[nH]2)nc1` [Compound 233] returned an IC50 of 84 nM. This IC50 lies about 5.7-fold lower than the previous one.

`CCCCc1nc(CC(OCC)OCC)nn1Cc1ccc(-c2ccccc2-c2nnn[nH]2)cc1` [Compound 38] yielded a half-maximal inhibitory concentration (IC50) of 10 nM.

On to `CCCCc1nc(CC(CC)CC)n(Cc2ccc(-c3ccccc3-c3nnn[nH]3)nc2)n1` [Compound 252], for which the IC50 came out at 13 nM.

Consider `CCCCc1nc(CCC2CCCCC2)nn1Cc1ccc(-c2ccccc2-c2nnn[nH]2)cc1` [Compound 43], for which the IC50 came out at 19 nM.

The compound `CCCCn1nc(C(F)CCC)nc1Cc1ccc(-c2ccccc2-c2nnn[nH]2)nc1` (stereo not drawn) [Compound 161] came in with an IC50 of 28 nM.

In the case of `CCCCc1cn(CCC)c(=O)n1Cc1ccc(-c2ccccc2-c2nnn[nH]2)nc1` [Compound 196], the IC50 is 31 nM.

`CCCCc1nc(CCCN)n(Cc2ccc(-c3ccccc3-c3nnn[nH]3)cc2)n1` [Compound 71] registered a concentration for half-maximal inhibition (IC50) of 12000 nM.

Regarding `CCCCn1nc(C(OCCC)OCCC)nc1Cc1ccc(-c2ccccc2-c2nnn[nH]2)nc1` [Compound 177], the IC50 came out at 26 nM.

Regarding `CCCCc1cn(-c2ccccc2C(C)C)c(=O)n1Cc1ccc(-c2ccccc2-c2nnn[nH]2)nc1` [Compound 219], the IC50 came out at 14 nM.

For `CCCCc1nc(C)n(Cc2ccc(-c3ccccc3-c3nnn[nH]3)cc2)n1` [Compound 33], the half-maximal inhibitory concentration (IC50) came out at 630 nM. Against the preceding compound, the IC50 is about 45-fold higher.

In turn, `CCCCc1cn(C2C3CC4CC(C3)C2C4)c(=O)n1Cc1ccc(-c2ccccc2-c2nnn[nH]2)nc1` (stereo not drawn) [Compound 213] showed an IC50 of 51 nM.

Take `CCCCc1nc(C(F)(F)C(F)(F)F)nn1Cc1ccc(-c2ccccc2-c2nnn[nH]2)cc1` [Compound 69]: the IC50 is 15 nM.

For the compound `CCCCc1nc(CCCC)n(Cc2ccc(-c3ccccc3C(=O)O)nc2)n1` [Compound 240], the concentration for half-maximal inhibition (IC50) turned out to be 120 nM.

`CCCCc1nc(-c2ccccc2OC)n(Cc2ccc(-c3ccccc3-c3nnn[nH]3)nc2)n1` [Compound 266] displayed an IC50 of 290 nM.

`CCCCc1nc(CC)n(Cc2ccc(-c3ccccc3-c3nnn[nH]3)cc2)n1` [Compound 40] yielded an IC50 of 83 nM.

As to `CCCCc1nc(CCCC)n(Cc2ccc(-c3ccncc3-c3nnn[nH]3)cc2)n1` [Compound 243], the IC50 came out at 250 nM. This IC50 lies about 3-fold higher than the previous one.

Consider `CCCCc1nc(CCCC)n(Cc2ccc(-c3ncccc3-c3nnn[nH]3)cc2)n1` [Compound 245], for which the IC50 came out at 98 nM. Against the preceding compound, the IC50 is about 2.6-fold lower.

`CCCCc1nc(C23CC4CC(CC(C4)C2)C3)nn1Cc1ccc(-c2ccccc2-c2nnn[nH]2)cc1` [Compound 56]: the IC50 is 5 nM.

In turn, `CCCCc1cn(-c2c(C)cccc2C)c(=O)n1Cc1ccc(-c2ccccc2-c2nnn[nH]2)nc1` [Compound 222] returned an IC50 of 5 nM.

Take `CCCCc1cn(CCCC)c(=O)n1Cc1ccc(-c2ncccc2-c2nnn[nH]2)cc1` [Compound 224]: the IC50 worked out at 91 nM.

Consider `CCCCc1nc(CNC(=O)OC(C)(C)C)n(Cc2ccc(-c3ccccc3-c3nnn[nH]3)cc2)n1` [Compound 34], for which the IC50 was 640 nM.

Consider `CCCCc1nc(C(=O)CCC)nn1Cc1ccc(-c2ccccc2-c2nnn[nH]2)cc1` [Compound 31], for which the IC50 was 14 nM.

As to `CCCCc1nc(C)nn1Cc1ccc(-c2ccccc2-c2nnn[nH]2)cc1` [Compound 32], the IC50 amounted to 16 nM.

In turn, `CCCCc1nc(-c2ccccc2)n(Cc2ccc(-c3ccccc3-c3nnn[nH]3)nc2)n1` [Compound 260] gave an IC50 of 220 nM.

For `CCCCc1nn(C(Cc2ccccc2)C(=O)c2ccccc2)c(=O)n1Cc1ccc(-c2ccccc2-c2nn[nH]n2)cc1` (stereo not drawn) [Compound 94], the half-inhibitory concentration (IC50) was determined as 5800 nM.

Regarding `CCCCCc1nc(Cc2ccc(-c3ccccc3-c3nnn[nH]3)nc2)n(CCCC)n1` [Compound 156], the IC50 was 78 nM. Against the preceding compound, the IC50 is about 74-fold lower.

Regarding `CCCCc1nc(CC)nn1Cc1ccc(-c2ccccc2C(=O)O)cc1` [Compound 75], the IC50 is 570 nM.

As to `CCCCc1nc(CF)nn1Cc1ccc(-c2ccccc2-c2nnn[nH]2)cc1` [Compound 59], the IC50 worked out at 120 nM. This IC50 lies about 4.8-fold lower than the previous one.

On to `CCCCc1nc(-c2ccccc2OC)nn1Cc1ccc(-c2ccccc2-c2nnn[nH]2)nc1` [Compound 265], for which the IC50 turned out to be 110 nM. The IC50 values of the last two compounds are within 1.5-fold of each other.

`CCCCc1cn(CC)c(=O)n1Cc1ccc(-c2ccccc2-c2nnn[nH]2)nc1` [Compound 195] returned an IC50 of 34 nM.

As to `CCCCc1cn(CCCC)c(=O)n1Cc1ccc(-c2ccncc2-c2nnn[nH]2)cc1` [Compound 226], the IC50 turned out to be 93 nM.

`CCCCc1cn(CC(C)C)c(=O)n1Cc1ccc(-c2ccccc2-c2nnn[nH]2)nc1` [Compound 197] showed an IC50 of 14 nM. Compared with the last compound, the IC50 is about 6.6-fold lower.

As to `CCCCc1nc(C2CCCCC2)nn1Cc1ccc(-c2ccccc2-c2nnn[nH]2)cc1` [Compound 66], the IC50 is 12 nM.

For the compound `CCCn1cc(CC(C)C)n(Cc2ccc(-c3ccccc3-c3nnn[nH]3)nc2)c1=O` [Compound 187], the IC50 came to 770 nM.

`CCCCCn1nc(CCCC)nc1Cc1ccc(-c2ccccc2-c2nnn[nH]2)nc1` [Compound 155] had an IC50 of 86 nM.

In the case of `CCCCc1nc(CCc2ccccc2)nn1Cc1ccc(-c2ccccc2-c2nnn[nH]2)nc1` [Compound 253], the half-inhibitory concentration (IC50) was 2.6 nM.

For `CCCCc1cn(C2CCCCC2(C)C)c(=O)n1Cc1ccc(-c2ccccc2-c2nnn[nH]2)nc1` (stereo not drawn) [Compound 237], the IC50 amounted to 3.6 nM.

With `CCCCc1cn(C)c(=O)n1Cc1ccc(-c2ccccc2-c2nnn[nH]2)nc1` [Compound 194], the IC50 came out at 47 nM.

Compound `CCCCc1nc(CCCNC(=O)OC(C)(C)C)nn1Cc1ccc(-c2ccccc2-c2nnn[nH]2)cc1` [Compound 68] displayed an IC50 of 8.6 nM.

Consider `CCCCc1nc(C23CC4CC(CC(C4)C2)C3)n(Cc2ccc(-c3ccccc3-c3nnn[nH]3)cc2)n1` [Compound 55], for which the IC50 came to 80 nM.

`CCCCn1nc(C(C)=O)nc1Cc1ccc(-c2ccccc2-c2nnn[nH]2)nc1` [Compound 183] had an IC50 of 390 nM.

In the case of `CCCCc1nc(-c2ccccc2)nn1Cc1ccc(-c2ccccc2-c2nnn[nH]2)cc1` [Compound 21], the IC50 amounted to 87 nM.

Values taken from patent US6653306B1, “Epoxy-steroidal aldosterone antagonist and angiotensin II antagonist combination therapy” (G.D. Searle & Co., priority 1995, dated 2003).
